Experimental data reported in PubChem BioAssay AID248 (DTP/NCI, 2004).
Values joined by “and” are separate entries in the source; they are usually repeats but may differ in a detail not shown here. Identical values can stand only once. Toxic doses and inconclusive results are not listed. No stated cut-off is given here; in the data, active means T/C of 150% or more; inactive means T/C below 125%.

Test system: L1210 leukemia ip in BDF1 mice, survival T/C
Assay: NCI In Vivo Anticancer Drug Screen. Data for tumor model L1210 Leukemia (intraperitoneal) in B6D2F1 (BDF1) mice
Conditions: endpoint: mean survival time, higher = longer survival
In short: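 Transplanted-tumor mice were given test agent; controls received vehicle only. Survival readings from the two groups were divided (treated over control).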

[1] = dose: 100.0 mg/kg/injection, schedule: Q01DX009 (ip), vehicle: saline with Tween-80
[2] = dose: 200.0 mg/kg/injection, schedule: Q01DX009 (ip), vehicle: saline with Tween-80
[3] = dose: 400.0 mg/kg/injection, schedule: Q01DX009 (ip), vehicle: saline with Tween-80
[4] = dose: 100.0 mg/kg/injection, schedule: Q04DX003 (ip), vehicle: saline
[5] = dose: 200.0 mg/kg/injection, schedule: Q04DX003 (ip), vehicle: saline
[6] = dose: 400.0 mg/kg/injection, schedule: Q04DX003 (ip), vehicle: saline
[7] = dose: 100.0 mg/kg/injection, schedule: Q01DX001 (ip), vehicle: Klucel (hydroxypropylcellulose) (HPC)
[8] = dose: 200.0 mg/kg/injection, schedule: Q01DX001 (ip), vehicle: Klucel (hydroxypropylcellulose) (HPC)
[9] = dose: 400.0 mg/kg/injection, schedule: Q01DX001 (ip), vehicle: Klucel (hydroxypropylcellulose) (HPC)
[10] = dose: 100.0 mg/kg/injection, schedule: Q01DX001 (ip), vehicle: saline with Tween-80
[11] = dose: 100.0 mg/kg/injection, schedule: Q04DX003 (ip), vehicle: saline with Tween-80

Measured: T/C

CCCCOC(=O)C1(C)OC1c1ccccc1 (configuration not stated)
inactive: dose: 100.0 mg/kg/injection, schedule: Q04DX002 (ip), vehicle: saline 101 % of control | dose: 200.0 mg/kg/injection, schedule: Q04DX002 (ip), vehicle: saline 89 % of control | dose: 400.0 mg/kg/injection, schedule: Q04DX002 (ip), vehicle: saline 101 % of control

COC(=O)/C=C(\C)Oc1cc(Cl)c(Cl)cc1Cl
inactive: [1] 94 % of control | [2] 97 % of control | [3] 97 % of control

C[N+]1=COCC1(C)C
inactive: dose: 100.0 mg/kg/injection, schedule: Q01DX009 (ip), vehicle: saline 104 % of control | [4] 99 % of control | dose: 200.0 mg/kg/injection, schedule: Q01DX009 (ip), vehicle: saline 101 % of control | [5] 94 % of control | dose: 400.0 mg/kg/injection, schedule: Q01DX009 (ip), vehicle: saline 115 % of control | [6] 97 % of control

COc1ccc(-n2nnnc2N)cc1
inactive: [7] 99 % of control | [8] 102 % of control | [9] 96 % of control

Cc1ccc2nc[nH]c(=O)c2c1
inactive: dose: 100.0 mg/kg/injection, schedule: Q04DX002 (ip), vehicle: Klucel (hydroxypropylcellulose) (HPC) 106 % of control | dose: 200.0 mg/kg/injection, schedule: Q04DX002 (ip), vehicle: Klucel (hydroxypropylcellulose) (HPC) 103 % of control | dose: 400.0 mg/kg/injection, schedule: Q04DX002 (ip), vehicle: Klucel (hydroxypropylcellulose) (HPC) 103 % of control

O=c1[nH]cnc2[nH]ncc12
inactive: dose: 50.0 mg/kg/injection, schedule: Q01DX001 (ip), vehicle: saline with Tween-80 95 % of control | dose: 69.0 mg/kg/injection, schedule: Q01DX015 (ip), vehicle: carboxymethylcellulose (CMC) 94 % of control | dose: 100.0 mg/kg/injection, schedule: Q01DX001 (ip), vehicle: carboxymethylcellulose (CMC) 106 % of control | [10] 105 % of control | dose: 100.0 mg/kg/injection, schedule: Q01DX001 (ip), vehicle: saline 101 % of control | dose: 104.0 mg/kg/injection, schedule: Q01DX015 (ip), vehicle: carboxymethylcellulose (CMC) 95 % of control | dose: 156.0 mg/kg/injection, schedule: Q01DX015 (ip), vehicle: carboxymethylcellulose (CMC) 96 % of control | dose: 200.0 mg/kg/injection, schedule: Q01DX001 (ip), vehicle: carboxymethylcellulose (CMC) 102 % of control | dose: 234.0 mg/kg/injection, schedule: Q01DX015 (ip), vehicle: carboxymethylcellulose (CMC) 94 % of control | dose: 351.0 mg/kg/injection, schedule: Q01DX015 (ip), vehicle: carboxymethylcellulose (CMC) 95 % of control

O=C(CCCCCCCCC(=O)N/N=C/c1ccc(O)cc1)N/N=C/c1ccc(O)cc1
inactive: [10] 90 % of control | [1] 89 % of control and 92 % of control | dose: 100.0 mg/kg/injection, schedule: Q04DX002 (ip), vehicle: saline with Tween-80 97 % of control and 100 % of control | [4] 97 % of control | dose: 200.0 mg/kg/injection, schedule: Q01DX001 (ip), vehicle: saline with Tween-80 92 % of control | [2] 100 % of control and 87 % of control | dose: 200.0 mg/kg/injection, schedule: Q04DX002 (ip), vehicle: saline with Tween-80 95 % of control and 97 % of control | [5] 92 % of control | dose: 400.0 mg/kg/injection, schedule: Q01DX001 (ip), vehicle: saline with Tween-80 95 % of control | [3] 101 % of control and 87 % of control | dose: 400.0 mg/kg/injection, schedule: Q04DX002 (ip), vehicle: saline with Tween-80 94 % of control and 92 % of control | [6] 88 % of control

ClC(Cl)(Cl)c1nc2nccnc2[nH]1
inactive: dose: 25.0 mg/kg/injection, schedule: Q04DX003 (ip), vehicle: saline with Tween-80 98 % of control | dose: 50.0 mg/kg/injection, schedule: Q04DX003 (ip), vehicle: saline with Tween-80 97 % of control | dose: 100.0 mg/kg/injection, schedule: Q04DX003 (ip), vehicle: saline sonified 96 % of control | [11] 110 % of control

O=C(O)c1cc(I)cc(I)c1
inactive: [11] 105 % of control | dose: 200.0 mg/kg/injection, schedule: Q04DX003 (ip), vehicle: saline with Tween-80 101 % of control | dose: 400.0 mg/kg/injection, schedule: Q04DX003 (ip), vehicle: saline with Tween-80 95 % of control

CCCCCCCCCCCCOCC[N+](C/C=C/c1ccccc1)(CCO)CCO
inactive: dose: 6.25 mg/kg/injection, schedule: Q01DX009 (ip), vehicle: saline with Tween-80 93 % of control | dose: 12.5 mg/kg/injection, schedule: Q01DX009 (ip), vehicle: saline with Tween-80 95 % of control

Nc1ncnc(N)c1NC(=O)c1ccc(CCc2ccccc2)c(Cl)c1
inactive: [7] 102 % of control | [8] 90 % of control | [9] 86 % of control
